From patent US12404304B1, “Telomerase reverse transcriptase (TERT) expression enhancing compounds and methods for using the same” (Sierra Sciences, LLC, priority 2007, dated 2025)

Experiments:
[1] = tested on: human TERT expression (hTERT mRNA); assay: Quantitative real-time RT-PCR of hTERT mRNA expression (Ct, transcripts) in compound-treated cells; type: cell-based; conditions: quantitative real-time RT-PCR
Summary of the method: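 Read-out is cycle threshold, the cycle at which probe fluorescence released by Taq 5′-nuclease activity crosses a set level; Ct falls as hTERT mRNA rises. cDNA of treated and untreated cells was compared, with starting transcripts quantified against a known-cDNA standard curve.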

viable cells in culture = assay: Cell viability assay (CellTiter-Glo Luminescent Cell Viability Assay, ATP quantitation, percent of vehicle control)

Row | SMILES | Average Number of hTERT Transcripts [1] | Average Cell Viability after 24 Hours (% DMSO) (viable cells in culture)
1 | COC(=O)CSc1nnc(NC(=O)c2ccc(Cl)cc2)s1 [compound 1302] | 41.43 | 70.75 % DMSO
2 | CCC(=O)Nc1nnc(SCc2cc(=O)c3cccc(Cl)c3[nH]2)s1 [compound 1303] | 4.51 | 80.90 % DMSO
3 | c1ccc(-c2c(-c3ccccc3)n(Cc3ccco3)c3ncn4nc(-c5ccncc5)nc4c23)cc1 [compound 1304] | 59.37 | 89.74 % DMSO
4 | CCOC(=O)c1cc2ccc(OC(=O)COc3ccc(C)cc3)cc2oc1=O [compound 1307] | 8.66 | 80.83 % DMSO
5 | CCOC(=O)COc1ccc2c(C)cc(=O)oc2c1C [compound 1308] | 3.16 | 90.12 % DMSO
6 | CN(C(=O)c1cc2ccccc2oc1=O)C1(C)CCS(=O)(=O)C1 (stereo not shown) [compound 1309] | 10.58 | 119.29 % DMSO
7 | CCc1cc(=O)oc2c(C)c(OC(=O)c3ccccc3)ccc12 [compound 1310] | 5.00 | 105.11 % DMSO
8 | COc1cc([N+](=O)[O-])cc2cc(C(=O)NCCCN3CCOCC3)c(=O)oc12 [compound 1311] | 4.38 | 92.83 % DMSO
9 | Cc1noc(-c2cc(Br)cc(Br)c2O)n1 [compound 1312] | 51.29 | 67.76 % DMSO
10 | O=C1CC(N2CCN(Cc3ccc(Cl)cc3)CC2)C(=O)N1c1ccccc1 (stereo not shown) [compound 1313] | 7.45 | 112.79 % DMSO
11 | Cc1sc(CO)c(Sc2ccccc2)c1C(=O)O [compound 1314] | 8.82 | 109.57 % DMSO
12 | CC1CCc2c(sc(NC(=O)c3cccnc3)c2C(=O)Nc2cccc(Cl)c2)C1 (stereo not shown) [compound 1315] | 26.20 | 58.86 % DMSO
13 | O=C(Nc1nccs1)c1sc2ccccc2c1Cl [compound 1316] | 13.39 | 73.91 % DMSO
14 | Nc1c(C(=O)Nc2ccc(Cl)c(Cl)c2)sc2nc3c(cc12)CCCC3 [compound 1317] | 10.56 | 88.17 % DMSO
15 | CC(=O)Oc1ccccc1C(=O)Nc1ccc(F)cc1F [compound 1318] | 13.40 | 59.35 % DMSO
16 | CC1=NN(C(=O)c2cc(Br)ccc2O)C(O)(c2ccccc2)C1 (stereo not shown) [compound 1319] | 15.04 | 61.93 % DMSO
17 | Cc1ccn2c(-c3csc(Nc4ccc(C(=O)O)cc4)n3)c(C)nc2c1 [compound 1320] | 8.00 | 90.39 % DMSO
18 | COC(=O)C1=C(C)Nc2nnnn2C1c1ccccc1OC (stereo not shown) [compound 1321] | 22.30 | 124.73 % DMSO
19 | COc1ccc(-c2cc3ccccn3c2C)cc1 [compound 1322] | 20.10 | 81.69 % DMSO

Row | SMILES | Average Number of hTERT Transcripts [1] | Average Cell Viability after 24 Hours (% DMSO) (viable cells in culture)
20 | Cc1ccc(S(=O)(=O)NC(=O)c2ccccc2O)cc1 [compound 1323] | 11.00 | 121.47 % DMSO
21 | O=C1c2oc3ccccc3c(=O)c2C(c2cccc(OCc3ccccc3)c2)N1c1nccs1 (stereo not shown) [compound 1324] | 8.42 | 57.19 % DMSO
22 | CCn1ncc([N+](=O)[O-])c1C(=O)Nc1sc2c(c1C#N)CCCCCC2 [compound 1325] | 29.36 | 94.20 % DMSO
23 | CCc1ccc(NC2c3ccccc3C(=O)N2Cc2ccc3c(c2)OCO3)cc1 (stereo not shown) [compound 1326] | 8.73 | 86.99 % DMSO
24 | Cc1cc(Br)ccc1NC(=O)Cn1ncc2c(=O)oc3ccccc3c21 [compound 1327] | 4.67 | 101.34 % DMSO
25 | COc1ccc(Br)cc1CNC(=O)Cn1ncc2c(=O)oc3ccccc3c21 [compound 1328] | 5.42 | 71.81 % DMSO
26 | CC1(C(=O)O)CC(=O)N=C2C=CC(Cl)=CN21 (stereo not shown) [compound 1329] | 3.63 | 94.31 % DMSO
27 | COc1cc(C(=O)Nc2ccc(-c3nc4ccccc4[nH]3)cc2)ccc1OC(C)=O [compound 1330] | 3.59 | 97.84 % DMSO
28 | COC(=O)CSc1nnc(-c2sc3ccccc3c2Cl)n1C [compound 1331] | 32.92 | 90.44 % DMSO
29 | C=CCc1c(C)nc(SCC(=O)Nc2cc(Cl)cc(Cl)c2)[nH]c1=O [compound 1332] | 12.68 | 94.78 % DMSO
30 | Cc1ccc(-c2noc(CN3CCOCC3)n2)cc1 [compound 1333] | 3.71 | 96.79 % DMSO
31 | O=C(Nc1cc([N+](=O)[O-])ccc1O)c1cccc(F)c1 [compound 1334] | 31.04 | 75.50 % DMSO
32 | O=[N+]([O-])c1ccc(NS(=O)(=O)c2cccc(C(F)(F)F)c2)cc1 [compound 1335] | 11.78 | 75.24 % DMSO
33 | CC(=O)N1C(=O)C(=O)c2cc(Cl)ccc21 [compound 1336] | 7.64 | 100.05 % DMSO
34 | CCOC(=O)COc1ccc2c(=O)c(-c3ccccc3Cl)c(C)oc2c1C [compound 1337] | 30.15 | 67.33 % DMSO
35 | Cc1ccc(NC(=O)c2cc([N+](=O)[O-])ccc2O)cc1 [compound 1338] | 49.42 | 80.45 % DMSO
36 | O=C(NC(=S)Nc1cc(Cl)cc(Cl)c1)c1cccc(F)c1 [compound 1339] | 7.09 | 68.94 % DMSO
37 | CCC(C)Cn1c(CO)nc2ccccc21 (stereo not shown) [compound 1340] | 4.37 | 106.88 % DMSO
38 | Cc1ccc(N)cc1S(=O)(=O)N1CCCCC1 [compound 1341] | 4.50 | 110.20 % DMSO

Row | SMILES | Average Number of hTERT Transcripts [1] | Average Cell Viability after 24 Hours (% DMSO) (viable cells in culture)
39 | CCOC(=O)c1cc(NC(=O)N(C(C)C)C(C)C)c(C)nc1C [compound 1342] | 4.48 | 103.16 % DMSO
40 | O=C(CSc1ncccc1C(=O)O)Nc1ccc(Oc2ccccc2)cc1 [compound 1343] | 4.57 | 103.75 % DMSO
41 | S=C(Nc1ccc(Br)cc1)Nc1cccc(Cl)c1 [compound 1344] | 7.86 | 42.95 % DMSO
42 | S=C(Nc1cccc(Cl)c1)Nc1cc(Cl)ccc1Cl [compound 1345] | 24.88 | 45.42 % DMSO
43 | COC(=O)COc1ccc(NC(=O)CSc2ccc(Cl)cc2)cc1 [compound 1346] | 31.23 | 56.33 % DMSO
44 | CC(C)CN1CC23C=CC(O2)C(C(=O)OCc2ccccc2)C3C1=O (stereo not shown) [compound 1347] | 12.01 | 118.20 % DMSO
45 | CCOC(=O)CSc1nc(C)c(CC)c(C)c1C(N)=O [compound 1348] | 5.97 | 106.19 % DMSO
46 | O=C(CCN1C(=O)c2cccc3cccc(c23)C1=O)Nc1ccon1 [compound 1349] | 12.52 | 76.50 % DMSO
47 | CC(C)Cc1nnc(SCC(=O)Nc2ccc(Br)cn2)[nH]1 [compound 1350] | 5.91 | 98.43 % DMSO
48 | CC1CCN(C(=O)CN(Cc2ccc(F)cc2)S(C)(=O)=O)CC1 [compound 1351] | 5.17 | 98.19 % DMSO
49 | CC(C)COc1ccc(NC(=O)C2CC2)cc1 [compound 1352] | 5.61 | 83.84 % DMSO
50 | Cc1ccc(NC(=O)NCc2ccccc2F)cc1C [compound 1353] | 3.61 | 87.98 % DMSO
51 | O=C(O)/C=C1\NC(=O)c2ccccc21 [compound 1354] | 14.31 | 96.80 % DMSO
52 | O=C(O)CC12CC3CC(C1)CC(CC(=O)O)(C3)C2 [compound 1355] | 4.95 | 95.78 % DMSO
53 | O=C(NCCc1ccncc1)C(F)(F)F [compound 1356] | 5.18 | 101.39 % DMSO
54 | COC(=O)c1cc(OC)c(OC)cc1NC(=S)N1CCN(C)CC1 [compound 1357] | 9.07 | 95.29 % DMSO
55 | CNC(=O)C1CCN(Cc2ccc(F)cc2)CC1 [compound 1358] | 7.53 | 111.88 % DMSO
56 | CCCn1c(=O)n(CC)c(=O)c2ccccc21 [compound 1359] | 13.21 | 104.81 % DMSO
